The values below come from US4929633A, “Actinonin derivatives having physiological activities” (Zaidan Hojin Biseibutsu Kagaku Kenkyu Kai, priority 1987, dated 1990).

Entries after “also recorded” stand apart in the source; their conditions may differ.

For assay [1] the following is noted: Kokai No. 15840/86; U.S. Pat. No. 4,663,342; cited from earlier work.
The test system of assay [2] is enkephalin-degrading enzymes. Conditions: Kokai No. 4228/87; cited from earlier work.
The target of assay [3] is angiotension-conversion enzyme (ACE) (Homo sapiens, UniProt P12821). The assay is described as follows: ACE-inhibitory activity (method of Analytical Biochemistry 84, 361 (1978)). It is filed as biochemical. The source says:
The enzyme-inhibitory activity of the test compounds against ACE were estimated in accordance with a method as described in the literature "Analytical Biochemistry", 84, 361 (1978).

The conditions of assay [4]: Kokai No. 4228/87; cited from earlier work.
The subject of assay [5] is peptidases. The conditions noted are these: Journal of Antibiotics 38, 1629-1630 (1985); cited from earlier work.
The target in assay [6] is T1, post-proline-cleaving enzyme (PPCE) (Sus scrofa, UniProt P23687).
T1 construct: PPCE used was an enzyme preparation made from swine kidney; from tissue; host or cells: swine kidney, ammonium sulfate fractionation and DEAE-Sephadex chromatography
Kind of assay: PPCE-inhibitory activity (substrate Z-Gly-Pro-PNA). It is filed as biochemical, swine. Conditions: for IC50: 37° C., 15 minutes, PPCE from swine kidney. As to the method: The enzyme-inhibitory activities of these test compounds against PPCE were estimated by adding a substrate compound of the formula [drawing 18] namely, N-benzyloxycarbonyl-glycyl-prolyl-p-nitroanilide (Z-Gly-Pro-PNA) to a solution of an enzyme, then adding to the solution each test compound having the enzyme-inhibiting activity to be assayed, reacting the substrate, the enzyme and the test compounds with each other at 37° C. for 15 minutes and then measuring the consumed amount of the substrate in terms of the determined reduction in the absorbency of a ultraviolet ray of a given wave length which transmitted the reaction solution where the substrate compounds, the enzyme and the enzyme-inhibiting test compound have been reacted with each other. In these tests, PPCE used was an enzyme preparation made from swine kidney and prior to its use, was purified by fractionation with ammonium sulfate and by subsequent chromatography on DEAE-Sephadex agent.

For assay [7] the following is noted: U.S. Pat. No. 3,240,787; cited from earlier work.
Assay [8] deals with experimental amnesia in mice. The assay is described as follows: step-down type passive avoidance response test, cycloheximide-induced amnesia in mice. Format: in vivo, mouse (male ddy-mice). The conditions noted are these: for Residence time: 24 h, max 300 s, control mice 220 ± 37. As to the method: These experiments were performed using male ddy-mice having an average body weight of 25 g as the test animal. A platform in cubic form having a length of 4 cm for each side of the cube was arranged in a cage on the floor of the cage. Each mouse was placed on the platform. An electric current-feeding device had been provided on the floor area of the cage which positioned outside the platform. It was so arranged that whenever the mouse descended onto the floor from the platform, a 60 V electric current was caused to pass through the floor for 0.5 second to shock the mouse so as to have the mouse learn the shocking passage of electric current. Immediately after the mouse's learning, the mouse was subcutaneously administered with 30 mg/kg of cycloheximide so as to induce experimental amnesia. Each test compound had been intraperitoneally administered to the mouse at a time of 15 minutes before the mouse's learing was commenced. Upon an elapsed time of 24 hours after the completion of the mouse's learning for the electric current passage, the mouse treated as above was again placed on the same platform in the same cage under the same conditions, and the residence time of the mouse staying on the platform was measured under a pre-requisit that a maximum residence time as determined was set to be up to 300 seconds.
The results of the experiments for the cycloheximide-induced amnestic mice as treated by the previous intraperitoneal administration of the test compound of this invention are summarized in Table 2 below.

In general, IC50 refers to the concentration that gives 50% inhibition. Low readings indicate greater potency in that assay, high ones weaker potency in that assay.

Sequence of angiotension-conversion enzyme (ACE) (P12821 30-1306, species assumed): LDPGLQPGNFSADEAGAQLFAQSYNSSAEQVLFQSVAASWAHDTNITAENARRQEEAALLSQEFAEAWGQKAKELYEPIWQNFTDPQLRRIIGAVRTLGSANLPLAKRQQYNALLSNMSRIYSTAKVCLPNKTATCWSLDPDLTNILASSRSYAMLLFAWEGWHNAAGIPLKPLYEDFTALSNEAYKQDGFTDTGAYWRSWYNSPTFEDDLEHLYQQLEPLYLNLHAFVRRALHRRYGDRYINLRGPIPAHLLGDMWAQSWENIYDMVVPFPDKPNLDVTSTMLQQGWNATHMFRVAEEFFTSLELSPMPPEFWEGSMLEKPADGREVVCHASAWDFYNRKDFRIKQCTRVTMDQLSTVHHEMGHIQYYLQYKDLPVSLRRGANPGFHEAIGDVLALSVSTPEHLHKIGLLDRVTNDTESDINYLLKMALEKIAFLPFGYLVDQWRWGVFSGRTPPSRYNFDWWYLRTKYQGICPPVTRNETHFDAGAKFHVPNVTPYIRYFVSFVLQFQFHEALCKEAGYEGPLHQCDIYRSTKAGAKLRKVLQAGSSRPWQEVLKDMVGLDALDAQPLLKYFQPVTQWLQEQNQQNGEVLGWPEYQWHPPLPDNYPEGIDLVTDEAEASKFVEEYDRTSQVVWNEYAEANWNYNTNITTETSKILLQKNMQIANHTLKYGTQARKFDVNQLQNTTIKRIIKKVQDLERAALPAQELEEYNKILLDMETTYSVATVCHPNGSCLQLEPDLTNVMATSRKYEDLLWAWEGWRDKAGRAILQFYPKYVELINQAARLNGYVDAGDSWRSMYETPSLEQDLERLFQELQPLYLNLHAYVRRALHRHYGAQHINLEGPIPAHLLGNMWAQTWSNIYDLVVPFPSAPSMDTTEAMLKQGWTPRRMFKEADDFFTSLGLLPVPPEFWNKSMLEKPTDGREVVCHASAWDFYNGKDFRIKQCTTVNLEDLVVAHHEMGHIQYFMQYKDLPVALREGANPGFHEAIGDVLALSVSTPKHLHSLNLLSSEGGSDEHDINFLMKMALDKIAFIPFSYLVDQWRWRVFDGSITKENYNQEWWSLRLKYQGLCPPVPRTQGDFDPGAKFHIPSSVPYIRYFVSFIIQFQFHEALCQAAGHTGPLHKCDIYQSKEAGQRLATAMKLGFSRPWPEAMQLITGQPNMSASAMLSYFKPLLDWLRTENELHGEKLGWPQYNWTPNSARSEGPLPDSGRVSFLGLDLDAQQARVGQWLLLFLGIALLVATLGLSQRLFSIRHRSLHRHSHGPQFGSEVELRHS
T1 sequence (P23687 whole entry): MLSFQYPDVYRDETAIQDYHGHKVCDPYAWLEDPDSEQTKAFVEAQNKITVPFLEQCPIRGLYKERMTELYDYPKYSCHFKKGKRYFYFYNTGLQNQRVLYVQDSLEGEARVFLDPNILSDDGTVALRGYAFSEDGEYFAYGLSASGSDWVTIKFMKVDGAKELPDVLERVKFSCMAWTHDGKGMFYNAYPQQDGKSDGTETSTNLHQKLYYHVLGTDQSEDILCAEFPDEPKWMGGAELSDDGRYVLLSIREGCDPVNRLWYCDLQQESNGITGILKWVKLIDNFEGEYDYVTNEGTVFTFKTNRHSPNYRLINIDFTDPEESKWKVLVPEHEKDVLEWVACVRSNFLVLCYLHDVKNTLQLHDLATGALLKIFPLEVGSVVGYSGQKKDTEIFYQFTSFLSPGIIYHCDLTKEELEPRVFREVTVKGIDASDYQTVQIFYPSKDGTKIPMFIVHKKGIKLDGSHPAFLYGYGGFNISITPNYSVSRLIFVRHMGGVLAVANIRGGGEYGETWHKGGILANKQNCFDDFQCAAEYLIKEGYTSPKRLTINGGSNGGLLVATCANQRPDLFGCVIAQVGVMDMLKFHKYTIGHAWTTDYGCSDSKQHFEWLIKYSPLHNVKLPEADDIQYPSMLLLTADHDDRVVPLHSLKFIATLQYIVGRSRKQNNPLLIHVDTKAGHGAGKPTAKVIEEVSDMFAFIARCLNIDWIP

Regarding `CCCCC[C@H](CC(=O)NO)C(=O)N[C@H](C(=O)N1CCC[C@H]1CO)C(C)C` [Actinonin], the “immunopotentiating activity (in words)” value in assay [1] is “immunopotentiating activity”. For the same compound, in assay [2], the “inhibition of the enkephalin-degrading enzymes (in words)” value is recorded as “can inhibit the enkephalin-degrading enzymes”. Also, in assay [3], the “ACE-inhibitory activity (in words)” value is “medium enzyme-inhibitory activity; also recorded: medium enzyme-inhibitory activities” and the IC50 was 37.9 µM. Besides, the “anodyne activity (in words)” value in assay [4] was “anodyne activity”. Also, in assay [5], the “inhibition of peptidases (in words)” value is listed as “inhibit a wide variety of peptidases”. In assay [6], the “PPCE-inhibitory activity (in words)” value is “medium enzyme-inhibitory activity; also recorded: medium enzyme-inhibitory activities” and the IC50 was 77.8 µM. The “antibacterial activity (in words)” value in assay [7] is “antibacterial activity”.
Take `CCCCC[C@H](CC(=O)O)C(=O)N[C@H](C(=O)N1CCC[C@H]1CO)C(C)C` [Compound of the Formula (III), (2S)-2-pentylsuccinyl-L-valyl-L-prolinol]: the half-inhibitory concentration (IC50) in assay [3] and in assay [6] was more than 135 µM in each case.
For `CCCCC[C@H](CC(=O)O)C(=O)N[C@H](C(=O)N1CCC[C@H]1C=O)C(C)C` [Example 1, (2S)-2-pentylsuccinyl-L-valyl-L-prolinal], the IC50 in assay [3] was more than 136 µM; in assay [6] it was 0.0841 µM.
Take `CCCCC[C@H](CC(=O)OCC)C(=O)N[C@H](C(=O)N1CCC[C@H]1C=O)C(C)C` [Example 2, (2S)-3-Ethoxycarbonyl-2-pentylpropionyl-L-valyl-L-prolinal]: the “ACE-inhibitory activity (in words)” value in assay [3] is given as “no enzyme-inhibitory activity against ACE”. Further, the IC50 was more than 126 µM in assay [3] and 0.0555 µM in assay [6]. Also, the “PPCE-inhibitory activity (in words)” value in assay [6] was “strong PPCE-inhibitory activity”. The Residence time came to 188 ± 35 s in assay [8] (3 mg/kg i.p. 15 min before learning, cycloheximide 30 mg/kg s.c., n=9, cycloheximide alone 114 ± 26) and 180 ± 26 s in assay [8] (10 mg/kg i.p. 15 min before learning, cycloheximide 30 mg/kg s.c., n=9, cycloheximide alone 114 ± 26). The “therapeutic effects to treat the experimental amnesia (in words)” value in assay [8] (cycloheximide-induced amnesia, mice) was “marked therapeutic effects”.
The compound `C[C@@H]1C[C@@H]([C@H](O)CC2CC(=O)NC(=O)C2)C(=O)[C@@H](C)C1` [cycloheximide] yielded a Residence time in assay [8] (cycloheximide alone (comparative), 30 mg/kg s.c. after learning, n=10) of 114 ± 26 s.
